Article PMC10786919, “Design-rules for stapled peptides with in vivo activity and their application to Mdm2/X antagonists” (Nature Communications, 2024)
In brackets after ≈: the same amount, converted by molar mass. Like-named read-outs stand apart in the source and are kept apart here. Positions of bridges follow the written chain, without caps; N, C: chain ends. Non-standard residues stand in square brackets, D forms with d. Residues, ends and D or L forms follow the SMILES beside them. Lys(N3) = [N-]=[N+]=NCCCC[C@H](N)C(=O)O; 2Nal = N[C@@H](Cc1ccc2ccccc2c1)C(=O)O; R8 = C=CCCCCCC[C@@](C)(N)C(=O)O; αMeE = C[C@](N)(CCC(=O)O)C(=O)O; Cba = N[C@@H](CC1CCC1)C(=O)O; S5 = C=CCCC[C@](C)(N)C(=O)O; Ahx = NCCCCCC(=O)O; βAla = NCCC(=O)O

How the values were obtained:
human Mdm2 1–125 = molecular target: T1, human Mdm2 1–125 (Homo sapiens, UniProt Q00987); assay: Mdm2 binding by competitive fluorescence anisotropy assay (FP binding); details: read-out: FP binding assay KD
T1 construct: GST (N); His6 (internal); TEV cleavage site (ENLYFQG) (internal); made in house; host or cells: BL21 (DE3) Rosetta T1R Escherichia coli
T1 sequence (Q00987 with tags, fused parts or gaps): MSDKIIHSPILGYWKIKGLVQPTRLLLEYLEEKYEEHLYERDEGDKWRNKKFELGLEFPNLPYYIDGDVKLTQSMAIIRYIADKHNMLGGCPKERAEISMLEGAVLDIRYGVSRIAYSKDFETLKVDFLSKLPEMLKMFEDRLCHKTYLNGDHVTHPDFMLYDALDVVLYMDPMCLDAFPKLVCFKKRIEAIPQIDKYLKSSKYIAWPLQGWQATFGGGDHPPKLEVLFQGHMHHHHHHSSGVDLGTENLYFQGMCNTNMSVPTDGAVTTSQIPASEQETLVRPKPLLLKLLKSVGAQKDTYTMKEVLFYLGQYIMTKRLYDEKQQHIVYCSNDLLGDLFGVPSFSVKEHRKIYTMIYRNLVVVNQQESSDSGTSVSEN
Description: The TEV (tobacco etch virus) cleavage site was changed from ENLYFQS to ENLYFQG to give a fusion protein with the following sequence:
[P] is the protein concentration (Mdm2), [L] is the labeled peptide concentration, r is the anisotropy measured, r0 is the anisotropy of the free peptide, rb is the anisotropy of the Mdm2–FAM-labeled peptide complex, Kd is the dissociation constant, [L]t is the total FAM labeled peptide concentration, and [P]t is the total Mdm2 concentration. […] This value was then used to determine apparent Kd values of the respective competing ligands in subsequent competition assays in fluorescence anisotropy experiments.
The competing molecules were then titrated against the complex of the FAM-labeled peptide and protein. Apparent Kd values were determined by fitting the experimental data to equations shown below:2 r=ro+(rb−ro)×2(d^2−3e)cos(θ/3)−9/3Kd1+2(d^2−3e)cos(θ/3)−d 3 d=Kd1+Kd2+[L]st+[L]t−Pt 4 e=Lt−PtKd1+Lst+PtKd2+Kd1Kd2 5 f=−Kd1Kd2[P]t 6 θ=arcos−2d^3+9de−27f/2(d^2−3e)^3
[L]st and [L]t denote labeled ligand and total unlabeled ligand input concentrations, respectively. Kd2 is the dissociation constant of the interaction between the unlabeled ligand and the protein. In all competition experiments, it is assumed that [P]t > [L]st, otherwise considerable amounts of free labeled ligand would always be present and would interfere with measurements. […] The FAM-labeled peptide was dissolved in dimethyl sulfoxide (DMSO) at 1 mM and diluted into experimental buffer. Readings were carried out with an Envision Multilabel Reader (PerkinElmer). […] Curve-fitting was carried out using Prism 4.0 (GraphPad). […] Negative control titrations of the ligands under investigation were also carried out with the fluorescently labeled peptide (in the absence of Mdm2) to ensure no interactions were occurring between the ligands and the FAM-labeled peptide. […] Measurements were taken a minimum of three times (biological replicates) and values are reported as geometric means of the replicates.

[1] = system: p53 responsive β-lactamase reporter in HCT116 cells; assay: cells; assay type: cell-based; details: read-out: p53 reporter assay EC50
Summary of the method: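 HCT116 cells stably carrying a p53-responsive β-lactamase reporter, seeded at 8000 cells/well, with 0.5% DMSO final. Reporter activity read by ToxBLAzer Dual Screen. Values are geometric means of at least three biological replicates.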

[2] = Lactate dehydrogenase (LDH) release assay; assay type: cell-based
Summary of the method: (§1)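 Membrane damage measured as lactate dehydrogenase release (CytoTox-ONE kit) from p53-responsive β-lactamase reporter HCT116 cells plated at 8000 per well. Final DMSO 0.5%; geometric mean reported from a minimum of three biological replicates.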

HCT116 cells = assay: Lactate dehydrogenase (LDH) release assay; assay type: cell-based
Summary of the method: as §1

[3] = system: Jump-In T-REx CHO-K1 BLA cells; assay: cells; assay type: cell-based; details: for EC50: read-out: TETCHO: Counterscreen EC50
[4] = Solubility assay (kinetic solubility, PBS pH 7); assay type: physicochemical; details: for solubility kinetic: read-out: Solubility
Summary of the method: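 Next, measure peak areas of sample and standard. Finally, multiply their ratio by the standard concentration to obtain solubility (µM).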

Ca Ski cell line = details: 72 h
Summary of the method: (§2)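 Compound dilution series (10 points, 3-fold, 10 mM top stock in DMSO) tested on overnight-plated Ca Ski cells in RPMI1640/10% FBS and on blasticidin-selected p53RE-bla HCT-116 cells in McCoy's 5A; read-out was CellTiter-Glo 2.0 luminescence after room-temperature equilibration.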

[5] = system: CellSensor p53RE-bla HCT-116 Cell Line; details: 72 h
Summary of the method: as §2

in vitro = details: Nanoclick permeability assay EC50
Summary of the method: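 Azido-peptide permeability was read as loss of NanoBRET signal (donor 450 nm, acceptor 610 nm) after adding NanoBret618-azide at 10 μM final.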

EPSA = assay type: physicochemical
[6] = Experimental LogD (partition coefficient); details: for logD: not stated, Partition Coeff LogD
[7] = pH 7, aqueous buffer, kinetic from dmso stock, pH 7, PBS

Row | SMILES | Kd (human Mdm2 1–125) | EC50 ([1]; 0% FBS 4Hr) | EC50 ([2]; LDH: Cytotoxicity assay EC50) | LDH: Cytotoxicity assay % Effect (HCT116 cells) | TETCHO: Counterscreen % Effect ([3]; 0% FBS 4Hr) | EC50 ([3]; 0% FBS 4Hr) | EC50 ([2]; LDH: Cytotoxicity assay: EC50) | EC50 (Ca Ski cell line) | EC50 [5] | cell entry EC50 (in vitro) | further results
1 | CC(=O)N[C@H](C(=O)N[C@@H](CO)C(=O)N[C@@H](Cc1ccc2ccccc2c1)C(=O)N[C@]1(C)CCCCCCC=CCCC[C@@](C)(C(=O)N[C@@H](CCC(=O)O)C(N)=O)NC(=O)[C@H](CC(C)C)NC(=O)[C@H](CC(C)C)NC(=O)[C@H](C)NC(=O)[C@H](Cc2c[nH]c3ccccc23)NC(=O)[C@H](Cc2ccc(O)cc2)NC(=O)[C@H](CCC(=O)O)NC1=O)[C@@H](C)O [MP-146] (Ac-TS[2Nal][R8]EYWALL[S5]E-NH2; staple 4-11) | 0.499 µM | 43.3 µM | > 50 µM | 16.49% | 1.205% | > 50 µM | – | – | – | – | –
2 | CC(C)C[C@@H]1NC(=O)[C@H](C)NC(=O)[C@H](Cc2c[nH]c3ccccc23)NC(=O)[C@H](Cc2ccc(O)cc2)NC(=O)[C@H](CCC(=O)O)NC(=O)[C@](C)(NC(=O)[C@H](Cc2ccccc2)NC(=O)[C@H](CO)NC(=O)[C@@H](NC(=O)[C@H](CO)NC(=O)CNC(=O)[C@@H](N)CO)[C@@H](C)O)CCCCCCC=CCCC[C@@](C)(C(N)=O)NC(=O)[C@H](CC(C)C)NC1=O [MP-132] | 0.0459 µM | 39.6 µM | > 50 µM | 1.056% | 9.469% | > 50 µM | – | – | – | – | –
3 | CC(=O)N[C@@H](CCCCN)C(=O)N[C@@H](CCCCN)C(=O)N[C@@H](CCCCN)C(=O)NCCCCCC(=O)N[C@H](C(=O)N[C@@H](CO)C(=O)N[C@@H](Cc1ccccc1)C(=O)N[C@]1(C)CCCCCCC=CCCC[C@@](C)(C(=O)N[C@@H](CCC(=O)O)C(=O)N[C@@H](CC(N)=O)C(=O)N[C@@H](Cc2ccccc2)C(N)=O)NC(=O)[C@H](CC(C)C)NC(=O)[C@H](CC(C)C)NC(=O)[C@H](C)NC(=O)[C@H](Cc2c[nH]c3ccccc23)NC(=O)[C@H](Cc2ccc(O)cc2)NC(=O)[C@H](CCC(=O)O)NC1=O)[C@@H](C)O [MP-5364] (Ac-KKK[Ahx]TSF[R8]EYWALL[S5]ENF-NH2; staple 8-15) | 0.0391 µM | 2.55 µM | > 50 µM | – | 62.33% | 31.9 µM | – | – | – | – | EC50 ([1]; 0% FBS 16Hr): 4.96 µM; TETCHO: Counterscreen % Effect ([3]; 0% FBS 16Hr): 3.12%
4 | CC(=O)N[C@H](C(=O)N[C@@H](CO)C(=O)N[C@@H](Cc1ccccc1)C(=O)NC(C)(C)C(=O)N[C@@H](CCC(=O)O)C(=O)N[C@@H](Cc1ccc(O)cc1)C(=O)N[C@@H](Cc1c[nH]c2ccccc12)C(=O)N[C@@H](C)C(=O)N[C@@H](CC(C)C)C(=O)N[C@@H](CC(C)C)C(=O)NC(C)(C)C(N)=O)[C@@H](C)O [MP-153] | 0.133 µM | 34.2 µM | > 50 µM | 0.7534% | 16.18% | > 50 µM | – | – | – | – | –
5 | CC(=O)N[C@H](C(=O)N[C@@H](CO)C(=O)N[C@@H](Cc1ccccc1)C(=O)N[C@]1(C)CCCCCCC=CCCC[C@@](C)(C(=O)N[C@@H](CO)C(=O)N[C@@H](C)C(=O)N[C@@H](C)C(=O)N[C@@H](CCC(=O)O)C(N)=O)NC(=O)[C@H](CC(C)C)NC(=O)[C@H](CC(C)C)NC(=O)[C@H](C)NC(=O)[C@H](Cc2c[nH]c3ccccc23)NC(=O)[C@H](Cc2ccc(O)cc2)NC(=O)[C@H](CCC(=O)O)NC1=O)[C@@H](C)O [MP-141] | < 0.001 µM | 5.36 µM | > 50 µM | 8.71% | 2.385% | > 50 µM | – | – | – | – | –
6 | CC(=O)N[C@H](C(=O)N[C@@H](CO)C(=O)N[C@@H](Cc1ccccc1)C(=O)N[C@]1(C)CCCCCCC=CCCC[C@@](C)(C(=O)N[C@@H](CCC(=O)O)C(N)=O)NC(=O)[C@H](CC(C)C)NC(=O)[C@H](CC(C)C)NC(=O)[C@H](C)NC(=O)[C@H](Cc2c[nH]c3ccccc23)NC(=O)[C@H](Cc2ccc(O)cc2)NC(=O)[C@H](CCC(=O)O)NC1=O)[C@@H](C)O [MP-139] | < 0.001 µM | 6.25 µM | 38.8 µM | 20.87% | 1.538% | > 50 µM | – | – | – | – | –
7 | CC(=O)N[C@@H](CCCCN=[N+]=[N-])C(=O)NCCC(=O)N[C@@H](CC(C)C)C(=O)N[C@H](C(=O)N[C@@H](Cc1ccccc1)C(=O)N[C@]1(C)CCCCCCC=CCCC[C@@](C)(C(=O)N[C@@H](CO)C(=O)N[C@@H](C)C(=O)N[C@@H](CCC(=O)O)C(N)=O)NC(=O)[C@H](CC2CCC2)NC(=O)[C@H](CCC(N)=O)NC(=O)[C@H](C)NC(=O)[C@H](Cc2c[nH]c3ccccc23)NC(=O)[C@H](Cc2ccc(O)cc2)NC(=O)[C@H](CCC(=O)O)NC1=O)[C@@H](C)O [MP-524] | – | – | – | – | – | – | > 50.7 µM | > 49.8 µM | 1.34 µM | 1.32 µM | solubility kinetic [4, 7]: 148 µM (≈ 300 µg/mL); EPSA (EPSA): Poorly Behaved; logD [6]: 2.1
8 | CC(=O)N[C@@H](CCCCN=[N+]=[N-])C(=O)NCCC(=O)N[C@@H](CC(C)C)C(=O)N[C@H](C(=O)N[C@@H](Cc1ccccc1)C(=O)N[C@]1(C)CCCCCCC=CCCC[C@@](C)(C(=O)N[C@@H](C)C(=O)N[C@@H](C)C(=O)N[C@@H](Cc2ccccc2)C(=O)N[C@@H](C)C(=O)N[C@@](C)(CCC(=O)O)C(=O)N[C@@H](Cc2ccccc2)C(N)=O)NC(=O)[C@H](CC2CCC2)NC(=O)[C@H](CCC(N)=O)NC(=O)[C@H](C)NC(=O)[C@H](Cc2c[nH]c3ccccc23)NC(=O)[C@H](Cc2ccc(O)cc2)NC(=O)[C@H](CCC(=O)O)NC1=O)[C@@H](C)O [MP-229] (Ac-[Lys(N3)][βAla]LTF[R8]EYWAQ[Cba][S5]AAFA[αMeE]F-NH2; staple 6-13) | – | – | – | – | – | – | > 50.7 µM | 19.9 µM | 2.32 µM | 2.09 µM | solubility kinetic [4, 7]: 153 µM (≈ 366 µg/mL); solubility kinetic [4]: 157 µM (≈ 376 µg/mL); EPSA (EPSA; EPSA): 253 A^2; logD [6]: 2.93
9 | CC(=O)N[C@@H](CCCCN=[N+]=[N-])C(=O)NCCC(=O)N[C@@H](CC(C)C)C(=O)N[C@H](C(=O)N[C@@H](Cc1ccccc1)C(=O)N[C@]1(C)CCCCCCC=CCCC[C@@](C)(C(=O)N[C@@H](C)C(=O)N[C@@H](C)C(=O)N[C@@H](Cc2ccccc2)C(=O)N[C@@H](C)C(=O)N[C@@H](C)C(=O)N[C@@H](Cc2ccccc2)C(N)=O)NC(=O)[C@H](CC2CCC2)NC(=O)[C@H](CCC(N)=O)NC(=O)[C@H](C)NC(=O)[C@H](Cc2c[nH]c3ccccc23)NC(=O)[C@H](Cc2ccc(O)cc2)NC(=O)[C@H](CCC(=O)O)NC1=O)[C@@H](C)O [MP-040] (Ac-[Lys(N3)][βAla]LTF[R8]EYWAQ[Cba][S5]AAFAAF-NH2; staple 6-13) | – | – | – | – | – | – | > 50.7 µM | > 49.8 µM | 1.22 µM | 0.439 µM | Solubility [4]: P.B.; Solubility ([4]; pH 7, PBS): Poorly Behaved; EPSA (EPSA; EPSA): 204 A^2; Partition Coeff LogD [6]: Poorly Behaved
